From patent US20250296938A1, “Compounds that Interact with the Ras Superfamily for the Treatment of Cancers, Inflammatory Diseases, Rasopathies, and Fibrotic Disease” (SHY Therapeutics, LLC, priority 2018, published 2025)

biological target: T1, KRas G12D mutant (Homo sapiens, UniProt P01116, G12D); experiment: Ras GTP binding domain inhibition assay (Cy3-GTP/Cy5-GTP competition); conditions: 20 μM; with SOS (Table 7A); read-out: KRas G12D mutant + SOS: % inh.
T1 construct: fused on or other part: His tag, used for capture on nickel-coated plates
Experimental: (§1) The following method was developed as specific assay for the following proteins: KRas wild type, KRas Q61H mutant, KRas G12C mutant, KRas G12D mutant, HRas wild type, Rac-1, and Rho-A.
(§2) • 25 mM Tris-HCl, pH 7.4 • 27 mM KCl • 137 mM NaCl • 1 mM MgCl2 • 1 mM DTT
(§3) • 50 mM Tris-HCl, pH 7.0 • 1 mM MgCl2 • 1 mM DTT
(§4) The small GTPases proteins: KRas wild type. KRas Q61H mutant, KRas G12C mutant, KRas G12D mutants, HRas wild type, Rac-1, and Rho-A were expressed as His-tagged proteins. In addition, the Guanosine nucleotide Exchange Factor (GEF) Sos protein (residues 556-1049) was expressed as a His-tagged protein. In cells, the guanine nucleotide exchange factor Sos protein promotes activation of Ras proteins by stimulating an exchange of GDP for GTP. The inclusion of Sos to the Ras GTP binding domain inhibition assay may be considered as an alternative representation of physiological cellular conditions for evaluating the inhibitory activity of some of the tested small molecules.
(§5) For the assay, all purified small GTPases proteins were diluted in Buffer-I or Buffer-II to a final concentration of 10-30 μg/mL. 200 μL of each diluted protein was added to a nickel-coated 96-well plate and incubated overnight at 4° C. Then the protein solution was discarded and 200 μL of Buffer-I or Buffer-II was added to each well in the presence of 1% DMSO. Compounds to be tested were added to the protein-coated wells at final concentration of 20 μM, and incubated for 3 hours at room temperature with and without […] of Sos added to the final hour of the incubation. When performing IC50 measurements a serial dilution of all tested concentrations was added. Then Cy3-GTP or Cy5-GTP was added to each well to a final concentration of 100 nM. The labeled GTP was incubated for 45 minutes at room temperature. Following GTP incubation, wells were washed 3× in Buffer-I or Buffer-II and 200 μL of Buffer-I or Buffer-II was added to each well. Following washes, the amount of bound labeled-GTP was measured using a SpectraMax M3 (Molecular Devices).

Compound	inhibition at 20 µM [%]
CO[C@H]1C[C@@H](Nc2nc(-c3nccn3C)nc3sc(-c4ccn(C)n4)c(-c4ccccc4)c23)C1.Cl	51 to 75
Cn1ccc(-c2sc3nc(-c4nccn4C)nc(N[C@@H]4CC[C@H](O)C4)c3c2-c2ccccc2)n1 (racemic) [drawing 909]	0

same assay, conditions: 20 μM; with SOS; read-out: KRas G-12D mutant + SOS: % inh.

inhibition at 20 µM [%]	Compound
51 to 75	COC1CCN(c2nc(-c3nccn3C)nc3sc(-c4ccccc4CO)c(-c4ccccc4)c23)C1.Cl (centres unmarked)
1 to 25	COC1CCN(c2nc(-c3nccn3C)nc3sc(-c4ccc(N)nc4C)c(-c4ccccc4)c23)C1.Cl (centres unmarked)
51 to 75	COC1CCN(c2nc(-c3nccn3C)nc3sc(-c4ccc(CO)cc4)c(-c4ccccc4)c23)C1.Cl (centres unmarked)

Further lines, the molecule ahead of its results:

Compound	inhibition at 20 µM [%]
COC1CCN(c2nc(-c3nccn3C)nc3sc(-c4ccncc4C)c(-c4ccccc4)c23)C1.Cl (centres unmarked)	26 to 50
COC1CCN(c2nc(-c3nccn3C)nc3sc(-c4ccnc(N(C)C)c4)c(-c4ccccc4)c23)C1.Cl (centres unmarked)	51 to 75

same assay, conditions: 20 μM; without SOS (Table 7A); read-out: KRas G12D mutant: % inh.

Compound	inhibition at 20 µM [%]
CO[C@H]1C[C@@H](Nc2nc(-c3nccn3C)nc3sc(-c4ccn(C)n4)c(-c4ccccc4)c23)C1.Cl	26 to 50
Cn1ccc(-c2sc3nc(-c4nccn4C)nc(N[C@@H]4CC[C@H](O)C4)c3c2-c2ccccc2)n1 (racemic) [drawing 909]	0

same assay, conditions: 20 μM; without SOS; read-out: KRas G12D mutant: % inh.

inhibition at 20 µM [%]	Compound
51 to 75	COC1CCN(c2nc(-c3nccn3C)nc3sc(-c4ccccc4CO)c(-c4ccccc4)c23)C1.Cl (centres unmarked)
1 to 25	COC1CCN(c2nc(-c3nccn3C)nc3sc(-c4ccc(N)nc4C)c(-c4ccccc4)c23)C1.Cl (centres unmarked)
1 to 25	COC1CCN(c2nc(-c3nccn3C)nc3sc(-c4ccc(CO)cc4)c(-c4ccccc4)c23)C1.Cl (centres unmarked)

Further lines, the molecule ahead of its results:

Compound	inhibition at 20 µM [%]
COC1CCN(c2nc(-c3nccn3C)nc3sc(-c4ccncc4C)c(-c4ccccc4)c23)C1.Cl (centres unmarked)	26 to 50
COC1CCN(c2nc(-c3nccn3C)nc3sc(-c4ccnc(N(C)C)c4)c(-c4ccccc4)c23)C1.Cl (centres unmarked)	51 to 75

test system: KRas Q61H mutant; experiment: as above; parameters: species or system human; conditions: 20 μM; with SOS
Experimental: as §1, §2, §3, §4, §5

KRas Q61H mutant + SOS: % inh.	Compound
D (76-100% inhibition)	COC1CCN(c2nc(-c3nccn3C)nc3sc(-c4ccccc4CO)c(-c4ccccc4)c23)C1.Cl (centres unmarked)
A (1-25% inhibition)	COC1CCN(c2nc(-c3nccn3C)nc3sc(-c4ccc(N)nc4C)c(-c4ccccc4)c23)C1.Cl (centres unmarked)
D (76-100% inhibition)	COC1CCN(c2nc(-c3nccn3C)nc3sc(-c4ccc(CO)cc4)c(-c4ccccc4)c23)C1.Cl (centres unmarked)

Continued, molecule first:

Compound	KRas Q61H mutant + SOS: % inh.
COC1CCN(c2nc(-c3nccn3C)nc3sc(-c4ccncc4C)c(-c4ccccc4)c23)C1.Cl (centres unmarked)	B (26-50% inhibition)
COC1CCN(c2nc(-c3nccn3C)nc3sc(-c4ccnc(N(C)C)c4)c(-c4ccccc4)c23)C1.Cl (centres unmarked)	D (76-100% inhibition)

same assay, conditions: 20 μM; with SOS (Table 7A)

Compound	KRas Q61H mutant + SOS: % inh.
CO[C@H]1C[C@@H](Nc2nc(-c3nccn3C)nc3sc(-c4ccn(C)n4)c(-c4ccccc4)c23)C1.Cl	D (76-100% inhibition)
Cn1ccc(-c2sc3nc(-c4nccn4C)nc(N[C@@H]4CC[C@H](O)C4)c3c2-c2ccccc2)n1 (racemic) [drawing 909]	0 (0% inhibition)

same assay, conditions: 20 μM; without SOS

KRas Q61H mutant: % inh.	Compound
B (26-50% inhibition)	COC1CCN(c2nc(-c3nccn3C)nc3sc(-c4ccccc4CO)c(-c4ccccc4)c23)C1.Cl (centres unmarked)
A (1-25% inhibition)	COC1CCN(c2nc(-c3nccn3C)nc3sc(-c4ccc(N)nc4C)c(-c4ccccc4)c23)C1.Cl (centres unmarked)
0 (0% inhibition)	COC1CCN(c2nc(-c3nccn3C)nc3sc(-c4ccc(CO)cc4)c(-c4ccccc4)c23)C1.Cl (centres unmarked)

Continued, molecule first:

Compound	KRas Q61H mutant: % inh.
COC1CCN(c2nc(-c3nccn3C)nc3sc(-c4ccncc4C)c(-c4ccccc4)c23)C1.Cl (centres unmarked)	A (1-25% inhibition)
COC1CCN(c2nc(-c3nccn3C)nc3sc(-c4ccnc(N(C)C)c4)c(-c4ccccc4)c23)C1.Cl (centres unmarked)	D (76-100% inhibition)

same assay, conditions: 20 μM; without SOS (Table 7A)

Compound	KRas Q61H mutant: % inh.
CO[C@H]1C[C@@H](Nc2nc(-c3nccn3C)nc3sc(-c4ccn(C)n4)c(-c4ccccc4)c23)C1.Cl	C (51-75% inhibition)
Cn1ccc(-c2sc3nc(-c4nccn4C)nc(N[C@@H]4CC[C@H](O)C4)c3c2-c2ccccc2)n1 (racemic) [drawing 909]	A (1-25% inhibition)

test system: KRas G12C mutant; experiment: as above; parameters: species or system human; conditions: 20 μM; with SOS
Experimental: as §1, §2, §3, §4, §5

KRas G12C mutant + SOS: % inh.	Compound
D (76-100% inhibition)	COC1CCN(c2nc(-c3nccn3C)nc3sc(-c4ccccc4CO)c(-c4ccccc4)c23)C1.Cl (centres unmarked)
A (1-25% inhibition)	COC1CCN(c2nc(-c3nccn3C)nc3sc(-c4ccc(N)nc4C)c(-c4ccccc4)c23)C1.Cl (centres unmarked)
D (76-100% inhibition)	COC1CCN(c2nc(-c3nccn3C)nc3sc(-c4ccc(CO)cc4)c(-c4ccccc4)c23)C1.Cl (centres unmarked)

More lines, now with the values behind:

Compound	KRas G12C mutant + SOS: % inh.
COC1CCN(c2nc(-c3nccn3C)nc3sc(-c4ccncc4C)c(-c4ccccc4)c23)C1.Cl (centres unmarked)	B (26-50% inhibition)
COC1CCN(c2nc(-c3nccn3C)nc3sc(-c4ccnc(N(C)C)c4)c(-c4ccccc4)c23)C1.Cl (centres unmarked)	D (76-100% inhibition)

same assay, conditions: 20 μM; with SOS (Table 7A)

Compound	KRas G12C mutant + SOS: % inh.
CO[C@H]1C[C@@H](Nc2nc(-c3nccn3C)nc3sc(-c4ccn(C)n4)c(-c4ccccc4)c23)C1.Cl	D (76-100% inhibition)
Cn1ccc(-c2sc3nc(-c4nccn4C)nc(N[C@@H]4CC[C@H](O)C4)c3c2-c2ccccc2)n1 (racemic) [drawing 909]	A (1-25% inhibition)

same assay, conditions: 20 μM; without SOS

KRas G12C mutant: % inh.	Compound
A (1-25% inhibition)	COC1CCN(c2nc(-c3nccn3C)nc3sc(-c4ccccc4CO)c(-c4ccccc4)c23)C1.Cl (centres unmarked)
A (1-25% inhibition)	COC1CCN(c2nc(-c3nccn3C)nc3sc(-c4ccc(N)nc4C)c(-c4ccccc4)c23)C1.Cl (centres unmarked)
0 (0% inhibition)	COC1CCN(c2nc(-c3nccn3C)nc3sc(-c4ccc(CO)cc4)c(-c4ccccc4)c23)C1.Cl (centres unmarked)

Further lines, the molecule ahead of its results:

Compound	KRas G12C mutant: % inh.
COC1CCN(c2nc(-c3nccn3C)nc3sc(-c4ccncc4C)c(-c4ccccc4)c23)C1.Cl (centres unmarked)	B (26-50% inhibition)
COC1CCN(c2nc(-c3nccn3C)nc3sc(-c4ccnc(N(C)C)c4)c(-c4ccccc4)c23)C1.Cl (centres unmarked)	A (1-25% inhibition)

same assay, conditions: 20 μM; without SOS (Table 7A)

Compound	KRas G12C mutant: % inh.
CO[C@H]1C[C@@H](Nc2nc(-c3nccn3C)nc3sc(-c4ccn(C)n4)c(-c4ccccc4)c23)C1.Cl	C (51-75% inhibition)
Cn1ccc(-c2sc3nc(-c4nccn4C)nc(N[C@@H]4CC[C@H](O)C4)c3c2-c2ccccc2)n1 (racemic) [drawing 909]	A (1-25% inhibition)

test system: KRas wild type; experiment: as above; parameters: species or system human; conditions: 20 μM; with SOS
Experimental: as §1, §2, §3, §4, §5

KRas wild type + SOS: % inh.	Compound
D (76-100% inhibition)	COC1CCN(c2nc(-c3nccn3C)nc3sc(-c4ccccc4CO)c(-c4ccccc4)c23)C1.Cl (centres unmarked)
A (1-25% inhibition)	COC1CCN(c2nc(-c3nccn3C)nc3sc(-c4ccc(N)nc4C)c(-c4ccccc4)c23)C1.Cl (centres unmarked)
D (76-100% inhibition)	COC1CCN(c2nc(-c3nccn3C)nc3sc(-c4ccc(CO)cc4)c(-c4ccccc4)c23)C1.Cl (centres unmarked)

The remaining lines, values behind:

Compound	KRas wild type + SOS: % inh.
COC1CCN(c2nc(-c3nccn3C)nc3sc(-c4ccncc4C)c(-c4ccccc4)c23)C1.Cl (centres unmarked)	A (1-25% inhibition)
COC1CCN(c2nc(-c3nccn3C)nc3sc(-c4ccnc(N(C)C)c4)c(-c4ccccc4)c23)C1.Cl (centres unmarked)	D (76-100% inhibition)

same assay, conditions: 20 μM; with SOS (Table 7A)

Compound	KRas wild type + SOS: % inh.
CO[C@H]1C[C@@H](Nc2nc(-c3nccn3C)nc3sc(-c4ccn(C)n4)c(-c4ccccc4)c23)C1.Cl	D (76-100% inhibition)
Cn1ccc(-c2sc3nc(-c4nccn4C)nc(N[C@@H]4CC[C@H](O)C4)c3c2-c2ccccc2)n1 (racemic) [drawing 909]	A (1-25% inhibition)

same assay, conditions: 20 μM; without SOS

KRas wild type: % inh.	Compound
B (26-50% inhibition)	COC1CCN(c2nc(-c3nccn3C)nc3sc(-c4ccccc4CO)c(-c4ccccc4)c23)C1.Cl (centres unmarked)
A (1-25% inhibition)	COC1CCN(c2nc(-c3nccn3C)nc3sc(-c4ccc(N)nc4C)c(-c4ccccc4)c23)C1.Cl (centres unmarked)
0 (0% inhibition)	COC1CCN(c2nc(-c3nccn3C)nc3sc(-c4ccc(CO)cc4)c(-c4ccccc4)c23)C1.Cl (centres unmarked)

The remaining lines, values behind:

Compound	KRas wild type: % inh.
COC1CCN(c2nc(-c3nccn3C)nc3sc(-c4ccncc4C)c(-c4ccccc4)c23)C1.Cl (centres unmarked)	B (26-50% inhibition)
COC1CCN(c2nc(-c3nccn3C)nc3sc(-c4ccnc(N(C)C)c4)c(-c4ccccc4)c23)C1.Cl (centres unmarked)	C (51-75% inhibition)

same assay, conditions: 20 μM; without SOS (Table 7A)

Compound	KRas wild type % inh.
CO[C@H]1C[C@@H](Nc2nc(-c3nccn3C)nc3sc(-c4ccn(C)n4)c(-c4ccccc4)c23)C1.Cl	C (51-75% inhibition)
Cn1ccc(-c2sc3nc(-c4nccn4C)nc(N[C@@H]4CC[C@H](O)C4)c3c2-c2ccccc2)n1 (racemic) [drawing 909]	A (1-25% inhibition)
